One molecule from ChEMBL document CHEMBL1146745, “Studies on anti-Helicobacter pylori agents. Part 3: A novel, efficacious cephem derivative, FR193879” (Bioorg Med Chem Lett, 2004) can be followed below.

In experiment [1] the target is Beta-lactamase TEM (Escherichia coli) (UniProt P62593). The experiment can be described thus: Stability towards beta-lactamase was determined in penicillinase.
Experiment [2] shares this target. Briefly: Relative stability towards penicillinase was determined.
Experiment [3] shares this target. Briefly: Stability towards penicillinase was determined.

In the case of `NC(=O)Cc1csc(SC2=C(C(=O)O)N3C(=O)[C@@H](NC(=O)Cc4ccccc4)[C@H]3SC2)n1`, in experiment [1], the Vmax was found to be 1.18. Moreover, the Ratio in experiment [2] is reported as 9.38. For the same molecule, the Km (as a rule, the substrate concentration at which the rate is half of its maximum) in experiment [3] came out at 34.8 µg/mL.
